Data published in patent publication EP0385680B1, “Heterocyclic ethers as 5-lipoxygenase inhibitors” (ZENECA LIMITED, priority 1989, dated 1990).

How the values were obtained:
5-LO = molecular target: T1, 5-LO (Homo sapiens, UniProt P09917); assay: Test b): in vitro heparinised human blood challenged with calcium ionophore A23187, radioimmunoassay of LTB4; assay type: cell-based; conditions: A23187 challenge, read-out: IC₅₀ against LTB₄
T1 construct: incubating a test compound with heparinised human blood, prior to challenge with the calcium ionophore A23187; endogenous in cells; host or cells: blood cells in heparinised human whole blood
T1 sequence (P09917 1-674): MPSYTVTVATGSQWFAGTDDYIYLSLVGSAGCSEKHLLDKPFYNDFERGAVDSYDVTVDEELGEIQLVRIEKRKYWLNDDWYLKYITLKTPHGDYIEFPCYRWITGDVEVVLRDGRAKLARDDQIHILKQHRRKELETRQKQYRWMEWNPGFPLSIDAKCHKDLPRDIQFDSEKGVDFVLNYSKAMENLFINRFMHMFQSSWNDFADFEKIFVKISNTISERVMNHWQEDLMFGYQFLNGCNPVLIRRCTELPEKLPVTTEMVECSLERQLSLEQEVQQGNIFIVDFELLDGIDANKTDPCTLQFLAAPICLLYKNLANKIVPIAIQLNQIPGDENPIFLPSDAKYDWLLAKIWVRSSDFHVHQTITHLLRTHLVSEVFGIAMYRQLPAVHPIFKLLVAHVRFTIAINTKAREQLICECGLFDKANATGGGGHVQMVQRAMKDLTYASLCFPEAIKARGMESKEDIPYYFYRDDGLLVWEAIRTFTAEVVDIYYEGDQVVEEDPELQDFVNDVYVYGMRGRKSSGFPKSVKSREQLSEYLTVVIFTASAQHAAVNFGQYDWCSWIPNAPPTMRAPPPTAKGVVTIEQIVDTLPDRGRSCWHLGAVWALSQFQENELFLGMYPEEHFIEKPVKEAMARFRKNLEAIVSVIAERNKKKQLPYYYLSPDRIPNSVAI
Method: (§1) As stated previously, the heterocyclic ethers of the formula I are inhibitors of the enzyme 5-LO. […] This test provides a measure of the intrinsic inhibitory properties against soluble 5-LO in an extracellular environment. • b) An in vitro assay system involving incubating a test compound with heparinised human blood, prior to challenge with the calcium ionophore A23187 and then indirectly measuring the inhibitory effects on 5-LO by assaying the amount of LTB₄ using the specific radioimmunoassay described by Carey and Forder (F. Carey and R.A. Forder, Brit. […] The effects of a test compound on the enzyme cyclooxygenase (which is involved in the alternative metabolic pathway for arachidonic acid and gives rise to prostaglandins, thromboxanes and related metabolites) may be measured at the same time using the specific radioimmunoassay for thromboxane B₂(TxB₂) described by Carey and Forder (see above). […] It permits the selectivity of the inhibitory effect on 5-LO or cyclooxygenase to be assessed. • c) An ex vivo assay system, which is a variation of test b) above, involving administration of a test compound (usually orally as the suspension produced when a solution of the test compound in dimethylsulphoxide is added to carboxymethylcellulose), blood collection, heparinisation, challenge with A23187 and radioimmunoassay of LTB₄ and TxB₂. […]

cyclooxygenase = molecular target: T2, cyclooxygenase (Homo sapiens, UniProt P23219); assay: Test b): in vitro heparinised human blood challenged with calcium ionophore A23187, radioimmunoassay of TxB2; assay type: cell-based; conditions: A23187 challenge, read-out: IC₅₀ against TxB₂
T2 construct: against 5-LO and also cyclooxygenase in the presence of blood cells and proteins; endogenous in cells; host or cells: blood cells in heparinised human whole blood
T2 sequence (P23219 24-599): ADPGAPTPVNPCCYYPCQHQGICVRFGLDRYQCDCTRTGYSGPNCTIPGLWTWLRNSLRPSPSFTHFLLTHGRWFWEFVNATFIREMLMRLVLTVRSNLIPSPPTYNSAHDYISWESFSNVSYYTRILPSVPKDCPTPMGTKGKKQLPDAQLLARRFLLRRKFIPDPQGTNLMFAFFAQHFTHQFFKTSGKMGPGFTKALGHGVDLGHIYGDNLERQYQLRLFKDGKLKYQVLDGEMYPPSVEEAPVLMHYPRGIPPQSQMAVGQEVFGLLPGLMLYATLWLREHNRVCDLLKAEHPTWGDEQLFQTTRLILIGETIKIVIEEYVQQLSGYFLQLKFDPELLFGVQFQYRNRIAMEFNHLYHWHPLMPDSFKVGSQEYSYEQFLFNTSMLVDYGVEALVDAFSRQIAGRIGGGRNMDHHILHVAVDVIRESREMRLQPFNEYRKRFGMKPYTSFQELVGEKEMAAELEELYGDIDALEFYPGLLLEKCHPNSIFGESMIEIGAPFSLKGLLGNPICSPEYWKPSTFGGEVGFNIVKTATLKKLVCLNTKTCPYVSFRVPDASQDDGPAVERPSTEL
Method: as §1

| SMILES | IC50 (5-LO) | IC50 (cyclooxygenase) |
| --- | --- | --- |
| C=CCOCC(CC)(OCC=C)c1cc(F)cc(OCc2ccc3c(ccc(=O)n3C)c2)c1 (stereo not drawn) [2-allyloxy-2-[5-fluoro-3-(1,2-dihydro-1-methyl-2-oxoquinolin-6-ylmethoxy)phenyl]but-1-yl allyl ether] | 100 nM | – |
| CCC(COC)(OC)c1cccc(OCC#Cc2ccccn2)c1 (stereo not drawn) [2-methoxy-2-[3-(3-(2-pyridyl)prop-2-yn-1-yloxy)phenyl]but-1-yl methyl ether] | 1000 nM | > 40000 nM |
